Consider three molecules from paper PMC5119973 (Cancer Medicine, 2016).

Values joined by “and” are separate entries in the source; they are usually repeats but may differ in a detail not shown here. Equal entries are not always repeated.

One test addresses T1, MEK5 (Homo sapiens, UniProt Q13163).
T1 construct: purchased DiscoveRx (KINOMEscan service)
T1 sequence (Q13163 1-448): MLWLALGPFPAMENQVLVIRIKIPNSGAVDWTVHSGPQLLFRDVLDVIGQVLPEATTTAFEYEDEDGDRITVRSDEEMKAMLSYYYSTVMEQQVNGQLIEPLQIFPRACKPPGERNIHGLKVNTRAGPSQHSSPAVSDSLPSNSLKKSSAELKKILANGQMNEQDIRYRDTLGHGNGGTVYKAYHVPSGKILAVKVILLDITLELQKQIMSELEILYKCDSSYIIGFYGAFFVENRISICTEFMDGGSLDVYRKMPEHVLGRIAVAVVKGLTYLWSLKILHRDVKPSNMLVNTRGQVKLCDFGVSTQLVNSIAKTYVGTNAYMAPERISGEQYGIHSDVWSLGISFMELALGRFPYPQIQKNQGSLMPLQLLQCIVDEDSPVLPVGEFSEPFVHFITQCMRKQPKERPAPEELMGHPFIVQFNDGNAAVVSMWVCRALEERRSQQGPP
The test can be described thus: KINOMEscan active-site competitive binding assay.

A further test has as its system HT‐29. As to the kind of experiment: HT‐29 colon cancer xenograft in NMRI nu/nu mice. It counts as in vivo, mouse. The following applies: end of study day 39. On the procedure: Mouse experiments were approved by the relevant regulatory agency of the federal state of Berlin (Landesamt für Gesundheit und Soziales Berlin, approval number G0221/03). Mice were maintained in individually ventilated cages in groups of four mice per cage. They received autoclaved food and bedding (Ssniff, Soest, Germany) and acidified (pH 4.0) tap water ad libitum. The animal facility was equipped with an automatic 12 h light/dark regulation, temperature regulation at 22 ± 2°C, and relative humidity of 50 ± 10%. Female NMRI nu/nu mice (purchased from Charles River, Sulzfeld, Germany) were inoculated with 1 × 10^7 MDA‐MB‐231 or HT‐29 cells, which were allowed to grow subcutaneously to a palpable size of approximately 60–100 mm^3. […] All administrations were performed in the morning, without anesthesia. Tumor volume was determined twice per week using caliper measurements, and the volume was calculated using the formula (D × d^2)/2, with d defined as the minor axis and D as the major axis of the measurement. Tumor growth inhibition was calculated as relative tumor volume in relation to the first treatment day.
Changes in tumor volume were statistically evaluated by two‐way repeated‐measures analysis of variance, followed by Bonferroni correction, using GraphPad Prism 5 (San Diego, CA), and P < 0.05 was regarded as significant. Additionally, body weight of all mice was determined twice weekly, and the health status of the animals, including behavioral changes, was recorded daily.

In a further test the target is T2, LOK (Homo sapiens, UniProt O94804).
T2 construct: purchased DiscoveRx (KINOMEscan service)
T2 sequence (O94804 whole entry): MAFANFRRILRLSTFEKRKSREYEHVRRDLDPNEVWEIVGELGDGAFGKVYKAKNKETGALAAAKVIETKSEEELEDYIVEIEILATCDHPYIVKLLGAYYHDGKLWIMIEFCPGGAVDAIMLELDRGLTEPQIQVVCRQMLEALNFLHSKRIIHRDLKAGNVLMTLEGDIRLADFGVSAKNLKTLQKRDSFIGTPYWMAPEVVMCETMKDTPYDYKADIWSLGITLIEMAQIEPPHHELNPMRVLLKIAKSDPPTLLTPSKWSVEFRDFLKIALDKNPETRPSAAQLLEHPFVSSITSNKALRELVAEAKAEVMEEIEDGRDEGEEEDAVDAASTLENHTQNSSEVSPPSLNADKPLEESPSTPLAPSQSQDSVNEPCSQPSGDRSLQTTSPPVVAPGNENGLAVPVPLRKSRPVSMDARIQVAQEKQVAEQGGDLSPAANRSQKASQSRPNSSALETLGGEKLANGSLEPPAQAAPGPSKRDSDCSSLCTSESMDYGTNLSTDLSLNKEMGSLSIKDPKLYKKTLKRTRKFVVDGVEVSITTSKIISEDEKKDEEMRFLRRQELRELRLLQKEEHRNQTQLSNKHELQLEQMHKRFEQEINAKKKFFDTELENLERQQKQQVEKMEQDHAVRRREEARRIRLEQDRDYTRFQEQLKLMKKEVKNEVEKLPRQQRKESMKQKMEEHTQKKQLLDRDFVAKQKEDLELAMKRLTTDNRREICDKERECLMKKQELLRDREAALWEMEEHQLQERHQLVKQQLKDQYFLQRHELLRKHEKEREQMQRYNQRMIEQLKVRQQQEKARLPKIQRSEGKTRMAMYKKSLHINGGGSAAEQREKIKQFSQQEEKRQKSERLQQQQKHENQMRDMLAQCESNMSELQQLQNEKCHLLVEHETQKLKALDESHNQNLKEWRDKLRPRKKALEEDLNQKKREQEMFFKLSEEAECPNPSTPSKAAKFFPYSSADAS
As to the kind of experiment: KINOMEscan active-site competitive binding assay. The following applies: slash = two separate measurements.

For a further test, the target named is T3, DDR2 (Homo sapiens, UniProt Q16832).
T3 construct: purchased DiscoveRx (KINOMEscan service)
T3 sequence (Q16832 22-855): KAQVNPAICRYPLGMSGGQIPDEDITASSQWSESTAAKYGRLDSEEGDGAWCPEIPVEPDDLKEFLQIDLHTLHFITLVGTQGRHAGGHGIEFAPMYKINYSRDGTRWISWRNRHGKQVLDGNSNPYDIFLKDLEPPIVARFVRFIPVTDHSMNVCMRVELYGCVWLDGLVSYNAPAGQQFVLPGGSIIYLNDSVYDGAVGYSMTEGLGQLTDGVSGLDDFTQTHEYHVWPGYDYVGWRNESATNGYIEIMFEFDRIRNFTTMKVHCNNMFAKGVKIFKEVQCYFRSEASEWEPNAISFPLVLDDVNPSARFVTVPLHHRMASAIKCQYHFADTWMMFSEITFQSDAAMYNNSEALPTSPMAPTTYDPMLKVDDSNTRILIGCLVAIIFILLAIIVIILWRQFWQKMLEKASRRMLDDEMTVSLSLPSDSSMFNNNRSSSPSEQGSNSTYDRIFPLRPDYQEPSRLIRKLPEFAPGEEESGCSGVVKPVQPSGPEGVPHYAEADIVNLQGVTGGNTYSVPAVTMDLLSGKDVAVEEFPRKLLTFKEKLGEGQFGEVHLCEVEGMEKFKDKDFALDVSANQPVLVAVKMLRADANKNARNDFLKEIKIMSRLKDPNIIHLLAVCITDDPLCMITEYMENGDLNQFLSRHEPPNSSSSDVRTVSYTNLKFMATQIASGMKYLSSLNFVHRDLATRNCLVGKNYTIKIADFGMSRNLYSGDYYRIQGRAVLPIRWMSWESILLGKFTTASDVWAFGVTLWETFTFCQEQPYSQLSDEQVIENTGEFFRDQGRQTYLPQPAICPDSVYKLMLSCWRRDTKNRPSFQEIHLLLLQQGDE
As to the kind of experiment: KINOMEscan active-site competitive binding assay. The following applies: slash = two separate measurements.

Another test has as its target T4, TNIK (Homo sapiens, UniProt Q9UKE5).
T4 construct: purchased DiscoveRx
As to the kind of experiment: KINOMEscan active-site competitive binding assay. The note with it: slash = two separate measurements.

T4 sequence (Q9UKE5 whole entry): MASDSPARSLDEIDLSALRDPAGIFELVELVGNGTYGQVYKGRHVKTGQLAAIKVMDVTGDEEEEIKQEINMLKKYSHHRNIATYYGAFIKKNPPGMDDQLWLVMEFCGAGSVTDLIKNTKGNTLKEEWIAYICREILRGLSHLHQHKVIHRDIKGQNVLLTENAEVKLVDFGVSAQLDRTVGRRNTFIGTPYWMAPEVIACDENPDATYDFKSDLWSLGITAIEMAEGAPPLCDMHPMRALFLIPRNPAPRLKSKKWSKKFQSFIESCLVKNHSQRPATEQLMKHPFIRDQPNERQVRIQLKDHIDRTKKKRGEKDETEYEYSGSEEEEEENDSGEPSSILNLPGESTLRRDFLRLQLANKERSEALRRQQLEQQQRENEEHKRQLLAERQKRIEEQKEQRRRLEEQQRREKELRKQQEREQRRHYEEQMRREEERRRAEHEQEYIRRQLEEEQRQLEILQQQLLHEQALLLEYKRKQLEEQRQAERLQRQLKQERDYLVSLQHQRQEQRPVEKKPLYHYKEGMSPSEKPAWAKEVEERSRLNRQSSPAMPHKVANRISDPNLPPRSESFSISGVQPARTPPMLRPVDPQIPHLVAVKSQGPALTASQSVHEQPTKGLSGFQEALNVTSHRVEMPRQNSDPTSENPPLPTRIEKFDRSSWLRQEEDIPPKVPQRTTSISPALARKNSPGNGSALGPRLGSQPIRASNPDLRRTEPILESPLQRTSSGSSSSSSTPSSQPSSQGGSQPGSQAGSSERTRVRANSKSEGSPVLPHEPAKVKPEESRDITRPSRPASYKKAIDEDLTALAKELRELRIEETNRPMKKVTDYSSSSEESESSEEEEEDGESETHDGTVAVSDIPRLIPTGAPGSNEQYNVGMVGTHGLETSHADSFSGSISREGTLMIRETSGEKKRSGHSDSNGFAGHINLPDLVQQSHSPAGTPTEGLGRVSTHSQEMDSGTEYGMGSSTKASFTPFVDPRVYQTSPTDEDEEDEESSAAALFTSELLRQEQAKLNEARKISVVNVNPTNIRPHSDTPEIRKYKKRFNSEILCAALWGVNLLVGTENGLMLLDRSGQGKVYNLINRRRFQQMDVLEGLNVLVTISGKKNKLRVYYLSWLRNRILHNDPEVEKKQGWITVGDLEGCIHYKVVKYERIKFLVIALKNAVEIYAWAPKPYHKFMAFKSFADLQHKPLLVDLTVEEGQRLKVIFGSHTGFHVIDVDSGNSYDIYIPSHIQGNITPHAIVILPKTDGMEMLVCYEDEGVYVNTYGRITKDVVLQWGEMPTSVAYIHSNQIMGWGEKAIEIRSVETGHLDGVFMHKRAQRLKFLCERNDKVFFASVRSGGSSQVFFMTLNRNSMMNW

Turning to `CNC(=O)c1cc(Oc2ccc(NC(=O)Nc3ccc(Cl)c(C(F)(F)F)c3)c(F)c2)cc[n+]1[O-]` [M‐2], the Kd amounted to 10 nM on MEK5, 9.3 nM on LOK, 5.3 nM at DDR2 and 41 nM at TNIK. Moreover, the “Tumor growth inhibition (%)” value amounted to 35% in the test on HT‐29 (3 mg/kg/day oral for 27 days) and 59% in the test with HT‐29 (10 mg/kg/day oral for 27 days).
With `NC(=O)c1cc(Oc2ccc(NC(=O)Nc3ccc(Cl)c(C(F)(F)F)c3)c(F)c2)cc[n+]1[O-]` [M‐5], the Kd turned out to be 10 nM at MEK5, 11 nM at LOK, 2.5 nM at DDR2 and 120 nM at TNIK. In addition, the “Tumor growth inhibition (%)” value in the test with HT‐29 (3 mg/kg/day oral for 27 days) came to 13%; with HT‐29 (10 mg/kg/day oral for 27 days) it was 66%.
As to `CNC(=O)c1cc(Oc2ccc(NC(=O)Nc3ccc(Cl)c(C(F)(F)F)c3)c(F)c2)ccn1` [Regorafenib, reference compound], the Kd at MEK5 is 40 nM; at LOK, 15 nM and 10 nM; at DDR2 it was 9.2 nM and 9.7 nM; on TNIK, 1100 nM and 970 nM. Besides, the “Tumor growth inhibition (%)” value with HT‐29 (3 mg/kg/day oral for 27 days) stood at 34%; with HT‐29 (10 mg/kg/day oral for 27 days), 67%.
